# Tests used:
# [1] = test system: Staphylococcus aureus-SMITH (GC 4543); assay: acute lethal infection in mice; assay type: in vivo; settings: acute lethal infection, female CD-1 mice, intraperitoneal challenge, intravenous 30 min. after infection, 7 day survival
# Outline: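 ED50 from 7 day survival ratios pooled over 3 separate tests. Female CD-1 mice, 20+/−2 gm, ip bacterial challenge (trypticase soy broth or hog gastric mucin) lethal to untreated controls in 24-48 hr; iv dosing 30 min after infection in saline or 5% dextrose, n=5/dose.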
# [2] = test system: Escherichia coli; assay: in vitro antibacterial evaluation, MIC by broth dilution; assay type: cell-based; settings: broth dilution, 18 hours at 35° C.
# Outline: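 MIC is the lowest antibiotic concentration (tested 64-0.06 μg/mL) preventing growth of a 5×10^5 CFU/mL inoculum. Determined by broth dilution in Mueller-Hinton II medium following NCCLS standard M7-A2.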
# [3] = anatomic pathology (histopathology of heart and kidney) in mice; assay type: in vivo; settings: CD-1 mice, 20 mg/kg intravenously daily for 9 days, necropsy day 10, microscopic histopathology
# Experimental: Samples of tissues from necropsied mice were formalin-fixed, paraffin-embedded, sectioned, stained with hematoxylin and eosin, and examined microscopically. Histopathologic findings were recorded. These findings were subjectively graded on a scale corresponding to slight, mild, moderate, marked and severe as compared to untreated controls.
# [4] = test system: Enterococcus sp.; assay: in vitro antibacterial evaluation, MIC by broth dilution; assay type: cell-based; settings: broth dilution, 18 hours at 35° C.
# Outline: (§1)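 Test organisms, which included recent clinical isolates resistant to methicillin, penicillin and/or vancomycin, were inoculated at 5×10^5 CFU/mL into Muller-Hinton II […] containing antibiotic at 64-0.06 μg/mL. Minimum inhibitory concentrations were then read as the lowest level inhibiting growth.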
# [5] = test system: Staphylococcus sp.; assay: as above; assay type: cell-based; settings: broth dilution, 18 hours at 35° C.
# Outline: as §1
# [6] = test system: Streptococcus sp.; assay: as above; assay type: cell-based; settings: broth dilution, 18 hours at 35° C.
# Outline: as §1
smiles,measurement,setting,value
"Cc1ccc(Oc2cccc(-c3nc4cc(CC5NC(=O)C(C(C)c6ccccc6)NC(=O)CNC(=O)C(CO)NC(=O)C(C(O)C6CNC(=N)N6C6OC(CO)C(O)C(O)C6O)NC(=O)C(C(O)C6CNC(=N)N6)NC5=O)ccc4o3)c2)cc1 (stereo not drawn) [Example 28, Cyclo[3-[2-[3-(4-methylphenoxy)phenyl]-1,3-benzoxazol-5-yl]alanyl-3-(2-iminoimidazolidin-4-yl)seryl-3-(3-hexopyranosyl-2-iminoimidazolidin-4-yl)serylserylglycyl-β-methylphenyl-alanyl]]","median effective dose (ED50), Staphylococcus aureus-SMITH (GC 4543)",[1],8 mg/kg
same,MIC Escherichia coli (ATCC 25922),[2]; strain ATCC 25922,64 µg/mL
same,MIC Escherichia coli (GC 4559),[2]; strain GC 4559,64 µg/mL
same,MIC Escherichia coli (GC 4560),[2]; strain GC 4560,8 µg/mL
same,"Anatomical Pathology (Day 10), Heart",[3],0
same,"Anatomical Pathology (Day 10), Kidney",[3],0
same,MIC Enterococcus faecalis (ATCC 29212),[4]; strain ATCC 29212,8 µg/mL
same,MIC Enterococcus faecalis (GC 2242),[4]; strain GC 2242,4 µg/mL
same,MIC Enterococcus faecium (GC 2243),[4]; strain GC 2243,8 µg/mL
same,MIC Enterococcus faecalis (GC 2691),[4]; strain GC 2691,8 µg/mL
same,MIC Enterococcus faecalis (GC 3059),[4]; strain GC 3059,8 µg/mL
same,MIC Enterococcus faecalis (GC 4552),[4]; strain GC 4552,8 µg/mL
same,MIC Enterococcus faecalis (GC 4553),[4]; strain GC 4553,4 µg/mL
same,MIC Enterococcus faecalis (GC 4554),[4]; strain GC 4554,8 µg/mL
same,MIC Enterococcus faecium (GC 4556),[4]; strain GC 4556,8 µg/mL
same,MIC Enterococcus faecium (GC 4557),[4]; strain GC 4557,4 µg/mL
same,MIC Enterococcus avium (GC 4558),[4]; strain GC 4558,4 µg/mL
same,MIC Enterococcus faecalis (GC 6189),[4]; strain GC 6189,8 µg/mL
same,MIC Staphylococcus aureus (ATCC 29213),[5]; strain ATCC 29213,8 µg/mL
same,MIC Staphylococcus aureus (GC 1131),[5]; strain GC 1131,8 µg/mL
same,MIC Staphylococcus aureus (GC 3051),[5]; strain GC 3051,4 µg/mL
same,MIC Staphylococcus aureus (GC 3053),[5]; strain GC 3053,4 µg/mL
same,MIC Staphylococcus aureus (GC 4541),[5]; strain GC 4541,8 µg/mL
same,MIC Staphylococcus aureus (GC 4542),[5]; strain GC 4542,8 µg/mL
same,MIC Staphylococcus aureus-SMITH (GC 4543),[5]; strain GC 4543,4 µg/mL
same,MIC Staphylococcus aureus (GC 4544),[5]; strain GC 4544,8 µg/mL
same,MIC Staphylococcus aureus (GC 4545),[5]; strain GC 4545,4 µg/mL
same,MIC Staphylococcus haemolyticus (GC 4546),[5]; strain GC 4546,4 µg/mL
same,MIC Coagulase Negative Staphylococcus (GC 4547),[5]; strain GC 4547,8 µg/mL
same,MIC Coagulase Negative Staphylococcus (GC 4548),[5]; strain GC 4548,4 µg/mL
same,MIC Coagulase Negative Staphylococcus (GC 4549),[5]; strain GC 4549,4 µg/mL
same,MIC Coagulase Negative Staphylococcus (GC 4551),[5]; strain GC 4551,4 µg/mL
same,MIC Coagulase Negative Staphylococcus (GC 6257),[5]; strain GC 6257,2 µg/mL
same,MIC Streptococcus pneumoniae (ATCC 6301),[6]; strain ATCC 6301,4 µg/mL
same,MIC Streptococcus pneumoniae (GC 1894),[6]; strain GC 1894,4 µg/mL
same,MIC Streptococcus pyogenes (GC 4563),[6]; strain GC 4563,1 µg/mL
same,MIC Streptococcus agalactiae (GC 4564),[6]; strain GC 4564,4 µg/mL
same,MIC Streptococcus pneumoniae (GC 4565),[6]; strain GC 4565,4 µg/mL

# — US6914045B2, “Glycopeptide antibiotics” (Wyeth Holdings Corporation, priority 2001, dated 2005)
